{"source": "BindingDB's records for doi:10.1021/jm00195a008", "about": "(1979)", "target": "DNA-directed RNA polymerase subunit alpha/beta/beta'/omega (Escherichia coli (strain K12), UniProt P0A7Z4+P0A800+P0A8T7+P0A8V2)", "sequence (P0A8V2 whole entry)": "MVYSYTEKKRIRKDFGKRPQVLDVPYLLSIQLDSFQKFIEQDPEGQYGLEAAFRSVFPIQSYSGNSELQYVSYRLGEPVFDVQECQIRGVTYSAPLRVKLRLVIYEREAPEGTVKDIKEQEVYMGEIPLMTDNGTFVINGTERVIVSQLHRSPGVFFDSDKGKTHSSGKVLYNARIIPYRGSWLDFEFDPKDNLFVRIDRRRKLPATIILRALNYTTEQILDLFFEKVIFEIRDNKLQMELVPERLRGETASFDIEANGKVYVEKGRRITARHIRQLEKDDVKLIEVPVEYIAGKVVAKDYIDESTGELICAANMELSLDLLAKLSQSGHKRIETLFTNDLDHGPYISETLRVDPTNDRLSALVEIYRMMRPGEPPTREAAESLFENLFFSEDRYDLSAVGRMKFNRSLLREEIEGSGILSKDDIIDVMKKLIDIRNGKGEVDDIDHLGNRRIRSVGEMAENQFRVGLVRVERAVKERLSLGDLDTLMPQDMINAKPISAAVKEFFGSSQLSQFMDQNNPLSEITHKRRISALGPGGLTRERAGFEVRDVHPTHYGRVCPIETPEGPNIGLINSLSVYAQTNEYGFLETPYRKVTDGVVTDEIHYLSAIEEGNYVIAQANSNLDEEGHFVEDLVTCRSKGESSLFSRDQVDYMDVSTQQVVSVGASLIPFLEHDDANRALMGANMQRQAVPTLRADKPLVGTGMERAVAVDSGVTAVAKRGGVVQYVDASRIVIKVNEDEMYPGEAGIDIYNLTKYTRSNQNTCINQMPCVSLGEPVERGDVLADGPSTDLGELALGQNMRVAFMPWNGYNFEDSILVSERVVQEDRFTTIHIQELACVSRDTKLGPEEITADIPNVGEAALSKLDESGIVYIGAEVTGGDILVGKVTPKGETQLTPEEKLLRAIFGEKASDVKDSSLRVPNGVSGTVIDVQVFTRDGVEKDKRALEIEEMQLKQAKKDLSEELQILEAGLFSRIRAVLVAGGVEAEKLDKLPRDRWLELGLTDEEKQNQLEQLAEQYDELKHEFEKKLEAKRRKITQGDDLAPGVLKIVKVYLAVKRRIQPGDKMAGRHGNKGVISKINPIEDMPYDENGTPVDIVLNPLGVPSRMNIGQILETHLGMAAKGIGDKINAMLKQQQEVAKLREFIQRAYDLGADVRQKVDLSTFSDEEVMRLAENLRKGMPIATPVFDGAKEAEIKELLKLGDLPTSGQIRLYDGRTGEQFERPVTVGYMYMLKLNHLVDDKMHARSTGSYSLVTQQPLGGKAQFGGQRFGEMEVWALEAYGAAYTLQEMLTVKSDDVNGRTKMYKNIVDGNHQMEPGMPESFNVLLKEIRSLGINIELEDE", "sequence (P0A7Z4 whole entry)": "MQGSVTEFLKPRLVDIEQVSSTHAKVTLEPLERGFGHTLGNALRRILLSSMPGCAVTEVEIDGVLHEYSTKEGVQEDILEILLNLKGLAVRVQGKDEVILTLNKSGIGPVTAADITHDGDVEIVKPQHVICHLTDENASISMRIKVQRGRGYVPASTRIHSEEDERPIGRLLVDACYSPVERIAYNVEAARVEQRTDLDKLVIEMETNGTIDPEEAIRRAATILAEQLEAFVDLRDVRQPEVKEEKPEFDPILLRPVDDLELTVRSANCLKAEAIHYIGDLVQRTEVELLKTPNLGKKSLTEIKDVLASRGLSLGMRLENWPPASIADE", "sequence (P0A8T7 whole entry)": "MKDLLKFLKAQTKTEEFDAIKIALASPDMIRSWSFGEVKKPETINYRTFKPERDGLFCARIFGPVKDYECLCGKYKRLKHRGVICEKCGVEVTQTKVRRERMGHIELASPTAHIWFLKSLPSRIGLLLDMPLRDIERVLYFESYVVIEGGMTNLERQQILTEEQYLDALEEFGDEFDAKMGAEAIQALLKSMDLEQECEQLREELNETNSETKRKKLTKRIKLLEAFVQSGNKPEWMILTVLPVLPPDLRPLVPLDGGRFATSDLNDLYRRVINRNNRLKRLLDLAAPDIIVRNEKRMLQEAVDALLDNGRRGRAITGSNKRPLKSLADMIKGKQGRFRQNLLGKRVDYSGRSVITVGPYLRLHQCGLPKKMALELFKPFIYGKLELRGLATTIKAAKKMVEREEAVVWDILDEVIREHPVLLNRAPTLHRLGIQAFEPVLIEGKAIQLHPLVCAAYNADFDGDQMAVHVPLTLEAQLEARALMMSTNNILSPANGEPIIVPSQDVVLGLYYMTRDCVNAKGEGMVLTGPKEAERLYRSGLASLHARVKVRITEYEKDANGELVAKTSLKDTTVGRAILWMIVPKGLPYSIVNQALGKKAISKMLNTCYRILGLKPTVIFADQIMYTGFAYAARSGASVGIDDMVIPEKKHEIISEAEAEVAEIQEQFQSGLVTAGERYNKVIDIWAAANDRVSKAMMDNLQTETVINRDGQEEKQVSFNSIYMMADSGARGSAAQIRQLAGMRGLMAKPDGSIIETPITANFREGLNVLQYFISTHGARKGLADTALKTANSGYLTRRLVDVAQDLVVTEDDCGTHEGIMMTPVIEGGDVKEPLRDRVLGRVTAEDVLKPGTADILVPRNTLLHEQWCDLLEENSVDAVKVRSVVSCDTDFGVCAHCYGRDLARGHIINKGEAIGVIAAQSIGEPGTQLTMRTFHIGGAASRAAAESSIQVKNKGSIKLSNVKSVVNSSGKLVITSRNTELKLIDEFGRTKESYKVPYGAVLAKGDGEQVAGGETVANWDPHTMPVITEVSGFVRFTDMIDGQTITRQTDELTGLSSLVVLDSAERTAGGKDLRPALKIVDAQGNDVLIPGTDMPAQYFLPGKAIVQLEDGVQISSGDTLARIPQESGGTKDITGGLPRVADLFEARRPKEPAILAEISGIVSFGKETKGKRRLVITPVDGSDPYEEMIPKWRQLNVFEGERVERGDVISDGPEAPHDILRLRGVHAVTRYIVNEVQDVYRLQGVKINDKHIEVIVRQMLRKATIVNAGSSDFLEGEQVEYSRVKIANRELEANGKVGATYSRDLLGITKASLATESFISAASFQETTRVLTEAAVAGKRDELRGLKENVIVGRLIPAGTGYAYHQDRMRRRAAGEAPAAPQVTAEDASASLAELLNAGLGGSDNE", "sequence (P0A800 whole entry)": "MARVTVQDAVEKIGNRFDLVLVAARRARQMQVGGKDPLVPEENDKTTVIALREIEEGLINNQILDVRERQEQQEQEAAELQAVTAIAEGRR", "experiment": "Inhibition of Escherichia coli DNA-dependent RNA polymerase", "data": [{"smiles": "Cc1c2oc3c(C)ccc(C(=O)N[C@@H]4C(=O)N[C@H](C(C)C)C(=O)N5CCC[C@H]5C(=O)N(C)CC(=O)N(C)[C@@H](C(C)C)C(=O)O[C@@H]4C)c3nc-2c(C(=O)N[C@@H]2C(=O)N[C@H](C(C)C)C(=O)N3CCC[C@H]3C(=O)N(C)CC(=O)N(C)[C@@H](C(C)C)C(=O)O[C@@H]2C)c(NC2CC(C)(C)[N+]([O-])C(C)(C)C2)c1=O", "values": [{"measurement": "IC50", "value": 2.8, "unit": "µM"}]}]}
